Experimental data as given in patent publication US20110152166A1, “METHOD OF MODULATION OF PROTEIN PHOSPHORYLATION-DEPENDENT CONFORMATIONAL TRANSITIONS WITH LOW MOLECULAR WEIGHT COMPOUNDS” (priority 2006, published 2011).
Where a chain is given by its changes, count along the chain named. Where two headings read alike, the source gives them in different places. Square brackets hold non-standard residues; d marks the D form. Ends that are not written are not given here. pS = N[C@@H](COP(=O)(O)O)C(=O)O

Assays:
Experiment in all cases: PDK1 activity assay with T308tide
Type in all cases: biochemical
GST-PDK1 [Ile119Ala] = target: T1, GST-PDK1 [Ile119Ala] (Homo sapiens, UniProt O15530, I119A); conditions: for AC50 / Max. activity: GST-PDK1 [Ile119Ala]
T1 construct: different protein constructs, comprising the full length protein or the catalytic domain alone; made in house; host or cells: HEK293 cells (pEBG-2T-PDK1 mutant)
T1 sequence (O15530 1-556 I119A): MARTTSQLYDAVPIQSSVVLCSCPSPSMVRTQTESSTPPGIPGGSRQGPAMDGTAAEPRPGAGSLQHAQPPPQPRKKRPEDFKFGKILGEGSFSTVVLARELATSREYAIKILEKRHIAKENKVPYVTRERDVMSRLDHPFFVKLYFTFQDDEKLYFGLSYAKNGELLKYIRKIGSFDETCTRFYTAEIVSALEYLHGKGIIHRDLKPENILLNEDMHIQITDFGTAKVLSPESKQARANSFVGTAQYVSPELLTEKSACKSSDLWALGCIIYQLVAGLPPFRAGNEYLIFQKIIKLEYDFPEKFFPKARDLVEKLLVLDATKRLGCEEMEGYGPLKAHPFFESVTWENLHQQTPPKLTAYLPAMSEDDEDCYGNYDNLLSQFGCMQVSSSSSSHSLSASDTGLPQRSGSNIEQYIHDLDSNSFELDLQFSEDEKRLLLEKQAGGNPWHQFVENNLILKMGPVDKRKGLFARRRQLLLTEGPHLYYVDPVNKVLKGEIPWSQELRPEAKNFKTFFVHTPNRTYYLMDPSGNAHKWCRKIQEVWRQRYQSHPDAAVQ
Experimental: (§1) Protein kinase activity tests were performed essentially as previously described (Balendran et al., 2000; Biondi et al., 2000; Biondi et al., 2001). Substrates used were either MBP (for PKCζ or polypeptides (Crosstide for PKB, S6K, SGK and PRK2; T308tide for PDK1, and Kemptide for PKA). PKA (Sigma) was measured in the presence of 100 μM cAMP. Alternatively, assays were performed in a 96 well format, aliquots spotted on p81 phosphocellulose papers (Whatmann), washed in 0.01% phosphoric acid, dried, and then exposed and analysed using Phospholmager technology (Storm, Molecular Dynamics). Activity measurements were performed in duplicates with less than 10% difference between duplicate pairs. Experiments were repeated at least twice, although most of the experiments were repeated multiple times, with similar results.
(§2) PDK1 activity assay was performed in a 20 μl mix containing 50 mM Tris-HCl pH 7.5, 0.05 mg/ml BSA, 0.1% β-mercaptoethanol, 10 mM MgCl2, 100 μM [γ^32P]ATP (5-50 cpm/pmol), 0.003% Brij, 150 ng PDK1, and T308tide (from 0.05 to 1 mM). PDK1 specific activity was approximately 5 U/mg (when measured at 1 mM T308tide). The effect of small compounds on PDK1 was repeated with proteins from different purification batches and with different protein constructs, comprising the full length protein or the catalytic domain alone, with similar results. […] This variability may be due to the PIFtide/compound-stimulated autophosphorylation of the activation loop in certain preparations having less than a 1:1 molar phosphorylation stoichiometry at this site.
(§3) PDK1 activity was measured at room temperature using a polypeptide substrate derived from the activation loop phosphorylation site of PKB, T308tide (0.1 mM). […] GST-PDK1 wt was purified in numerous occasions and the maximal activation level of different batches varied between 3 and 8 fold activation with PIFtide or compound 1. Variations in the basal activity and fold activation were also observed in mutants. Therefore, comparisons in the maximal level of activation between mutants should be performed with care. The data shown are from an experiment where PIFtide concentrations were tested between 50 nM and 20 µM and compound 1 concentrations were between 5 μM and 200 μM, in triplicate. AC50 and max. activity were estimated by fitting the data to a hyperbola using Kaleidagraph software. One Unit of PDK1 activity was defined as the amount required to catalyse the phosphorylation of 1 nmol of the T308tide in 1 min.

GST-PDK1 [Thr148Val] = target: T2, GST-PDK1 [Thr148Val] (Homo sapiens, UniProt O15530, T148V); conditions: for activation of PDK1 mutant (in words): PDK1[Thr148Val], 20 μM
T2 construct: different protein constructs, comprising the full length protein or the catalytic domain alone; made in house; host or cells: HEK293 cells (pEBG-2T-PDK1 mutant)
T2 sequence (O15530 1-556 T148V): T1 sequence (O15530 1-556 I119A) with A119I, T148V
Experimental: as §1, §2, §3

GST-PDK1 [Val127Leu] = target: T3, GST-PDK1 [Val127Leu] (Homo sapiens, UniProt O15530, V127L); conditions: for activation of PDK1 mutant (in words): PDK1[Val127Leu]
T3 construct: different protein constructs, comprising the full length protein or the catalytic domain alone; made in house; host or cells: HEK293 cells (pEBG-2T-PDK1 mutant)
T3 sequence (O15530 1-556 V127L): T1 sequence (O15530 1-556 I119A) with A119I, V127L
Experimental: as §1, §2, §3

Row | Compound | AC50 (GST-PDK1 [Ile119Ala]) [µM] | Max. activity (GST-PDK1 [Ile119Ala]) [U/mg] | Max. activity (GST-PDK1 [Thr148Val]; GST-PDK1 [Thr148Val]) [U/mg] | AC50 (GST-PDK1 [Thr148Val]; GST-PDK1 [Thr148Val], read-out: AC50) [µM] | activation of PDK1 mutant (in words) (GST-PDK1 [Thr148Val]) | AC50 (GST-PDK1 [Val127Leu]; GST-PDK1 [Val127Leu]) | activation of PDK1 mutant (in words) (GST-PDK1 [Ile119Ala]; Ile119 mutant, P-HM-RSK 20 μM) | activation of PDK1 mutant (in words) (GST-PDK1 [Val127Leu]) | AC50 (GST-PDK1 [Thr148Val]; GST-PDK1 [Thr148Val]) | Max. activity (GST-PDK1 [Val127Leu]; GST-PDK1 [Val127Leu]) [U/mg] | AC50 (GST-PDK1 [Val127Leu]; GST-PDK1 [Val127Leu], read-out: AC50) [µM]
1 | O=C(O)CSC(CC(=O)c1ccc(Cl)cc1)c1ccccc1 (stereo not drawn) [Compound 1] | 90 ± 20 | 2.1 ± 0.23 | 2.44 ± 0.26 | 102 ± 19 | still activated | No Effect | – | – | – | – | –
2 | P-HM-RSK: phosphorylated HM polypeptide of RSK: KGAGGGGFRGFS(P)FVA (KGAGGGGFRGF[pS]FVA) | – | – | – | – | completely abolished | – | completely abolished | fully activated | – | – | –
3 | REPRILSEEEQEMFRDFDYIADWC [PIFtide, reference compound] | 0.66 ± 0.14 | 2.58 ± 0.17 | – | – | – | – | – | fully activated | INH | 0.99 ± 0.08 | 0.12 ± 0.03
